Test results reported in patent US20220409578A1, “FUNCTIONALIZED 1,3-BENZENE DIOLS AND THEIR METHOD OF USE FOR THE TREATMENT OF RADIATION DERMATITIS AND OTHER SKIN DISORDERS” (KANNALIFE SCIENCES, INC., priority 2019, published 2022).
pIC50: −log10 of the molar value.

What was measured:
Assay type in all cases: cell-based
TNFα = TNFα release from UV-B irradiated human epidermal keratinocytes (ELISA); conditions: Keratinocyte, light or radiation study, UV-B 25 mJ/cm^2 (280-312 nm), read-out: IC50 of TNFα inhibition
Method: Normal human epidermal keratinocytes cultures were utilized to measure the release of proinflammatory cytokines and chemokines. Primary epidermal keratinocytes from neonatal donors were used from human origin and purchased from Thermo-Fisher (Cat No. A13401). […] Cells were cultured until the second passage and then acclimated for 48 hours more before UV-B irradiation. Dosing procedures and cell groups were identified using appropriate cell culture 24-well plates. The cell culture incubator was set at 5% v/v CO2 with temperature and humidity maintained at 36-38° C. and 40-70%, respectively. The test and control substances were administered to HKGS-depleted medium in triplicates. A fixed 5 μL/well from 100× stock dose volume was administered to 500 μL of media to each cell culture well on Day 3 and pre-incubated for 6 hours and then post-UVB incubated for 18 hours. […] Media supernatants were harvested and analyzed for TNFα and IL-1β levels by ELISA method. Cytokine levels were assessed from cell culture media supernatants using BD Biosciences OptEIA™ Human TNFα (Cat. No. 555212) and IL-1β (Cat. No. 557953) and ELISA set kit and Reagent Set B (Cat. No. 550534) according the manufacture's specifications. Absorbance was measured at 450 nm using a plate reader and calculated cytokine levels were determined from a standard curve.

IL-6 = IL-6 release, UV-A-induced photoaging in human dermal fibroblasts (ELISA); conditions: UV-A 12.5 J/cm^2 (315-400 nm)
Method: Primary dermal fibroblasts cells of human origin were cultured in vitro using standard conditions (37° C., 95% v/v air, 5% v/v CO2). Primary dermal fibroblasts from neonatal donor were used from human origin and purchased from Thermo-Fisher (Cat No. C0045C). […] Cells were cultured until the second passage and then acclimated for 48 hours before UVA irradiation and dosing procedures conducted in 24-well plates. On Day 3, test materials were dosed to cell culture media and pre-incubated for 6 hours. Treatment media was then removed and replaced with phosphate buffer saline (PBS) without test materials and Ultraviolet-A (UV-A) was irradiated at 12.5 J/cm^2 using FS-20/T-12 bulbs (315-400 nm). […]
An Interleukin-6 assay was used to evaluate the anti-inflammatory activity of KLS-13022 formulated in ethanol and applied in vitro to cells irradiated with Ultraviolet-A (UV-A)-induced photoaging (Wlascheck et al., 1994) in human dermal fibroblasts (HDFs). […] IL-6 levels were quantified by enzyme-linked immunosorbent assay (ELISA) after inflammatory induction and incubation with test and control materials. Interleukin-6 (IL-6) levels were assessed from cell culture media supernatants using BD Biosciences OptEIA™ Human IL-6 ELISA Set kit (Cat. No. 555220). according to the manufacture's specifications. […]

[1] = test system: human dermal fibroblast cells; conditions: 24 h
Method: Primary dermal fibroblasts cells of human origin were cultured in vitro using standard conditions (37° C., 95% v/v air, 5% v/v CO2). Primary dermal fibroblasts from neonatal donor were used from human origin and purchased from Thermo-Fisher (Cat No. […]). […] Cells were cultured until the second passage and then acclimated for 48 hours before UVA irradiation and dosing procedures conducted in 24-well plates. On Day 3, test materials were dosed to cell culture media and pre-incubated for 6 hours. Treatment media was then removed and replaced with phosphate buffer saline (PBS) without test materials and Ultraviolet-A (UV-A) was irradiated at 12.5 J/cm^2 using FS-20/T-12 bulbs (315-400 nm). After UV-A irradiation, PBS was replaced with fresh DMEM medium with test materials and incubated for 18 hours at standard culture conditions. After incubation, culture medium supernatants were harvested and used to measure human IL-6 levels by ELISA method. In vitro dosing route was selected to test the activity of KLS-13022 after pro-inflammatory inducer UV-A irradiation, since isolated human cell culture provide direct activity indication and specific cell-type effects. Human cells were selected as relevant to cell types within skin tissues for this development program. […] Absorbance was measured at 490 nm using plate reader and cell viability was calculated as a percent of control. […]

## C=C(C)[C@@H]1CCC(C)=C[C@H]1c1c(O)cc(CC2CN(C(=O)OCC)C2)cc1O [KLS-13022, ethyl 3-(3,5-dihydroxy-4-((1R,6R)-3-methyl-6-(prop-1-en-2-yl)cyclohex-2-enyl)benzyl)azetidine-1-carboxylate]
TNFα
  pIC50: 6.42
IL-6; Fibroblast, light or radiation study, read-out: IC50 of IL-6 inhibition
  pIC50: 6.05
IL-6
  maximum IL-6 inhibition: 95%
[1]
  non-toxic concentration range: ≤ 1.67 µM
  toxic concentration: 3.3 µM
